Target: T1, hDGAT1 (Homo sapiens, UniProt O75907)
T1 construct: made in house; host or cells: Sf9 insect cells (baculovirus); microsomal fraction
T1 sequence (O75907 1-488): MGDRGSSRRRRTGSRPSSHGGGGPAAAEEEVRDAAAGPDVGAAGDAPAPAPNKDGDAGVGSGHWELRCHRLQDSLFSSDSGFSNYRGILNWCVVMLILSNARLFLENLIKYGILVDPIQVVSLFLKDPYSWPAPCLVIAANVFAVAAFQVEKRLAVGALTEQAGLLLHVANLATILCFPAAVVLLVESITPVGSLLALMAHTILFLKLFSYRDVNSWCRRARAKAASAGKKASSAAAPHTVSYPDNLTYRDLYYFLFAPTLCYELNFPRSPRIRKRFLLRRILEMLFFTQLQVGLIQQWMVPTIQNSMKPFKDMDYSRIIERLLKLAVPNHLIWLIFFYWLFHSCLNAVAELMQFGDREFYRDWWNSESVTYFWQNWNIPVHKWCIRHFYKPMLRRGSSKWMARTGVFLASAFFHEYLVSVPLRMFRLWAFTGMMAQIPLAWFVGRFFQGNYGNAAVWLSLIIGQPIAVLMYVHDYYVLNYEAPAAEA
Assay: In-vitro DGAT1 assay with hDGAT1 microsomes from Sf9 cells (14C oleoyl CoA, scintillation counting)
Format: biochemical
Conditions: for Percentage inhibition of hDGAT1: at 1 μM; for inhibition at 1 µM: read-out: Percentage inhibition of hDGAT1
Method: Sf9 cells were grown in T25 flasks containing Graces's Insect media with 10% FBS with antibiotic (100 units/mL penicillin, 100 μg/mL streptomycin sulphate, 0.25 μg/mL Amptotericin B as Fungizone) grown in a 27° C. incubator.
hDGAT10RF expression clone (RZPDo839C09146 in pDEST vector) was obtained from RZPD, German Science Center for Genomes research, Germany. hDGAT1 bacmid DNA was obtained by transformation of the hDGAT1 expression clone into DH10Bac E. coli competent cells. Approximately 1 μg of hDGAT1 bacmid DNA was infected into Sf9 cells with Cellfectin (Invitrogen) reagent. Following infection, Sf9 cells were incubated at 27° C. for 30 min. Five hours after infection, the media was replaced with growth media containing antibiotics (100 units/mL penicillin, 100 μg/mL streptomycin sulphate, 0.25 μg/mL Amptotericin B as Fungizone) and incubated at 27° C. for 72 h. The supernatant containing the virus was centrifuged at 1500×g for 5 min, passed through 0.22 μm filter, and subsequently stored at 4° C. The virus was further amplified three more times by re-infection of Sf9 cells and the viral titer was determined by plaque assay.
Sf9 cells were seeded in spinner flasks on day 0 at a cell density of 1×10^6 and infected on day 1 with hDGAT1 baculovirus at a multiplicity of infection (MOI) of 5 and a cell density of 2×10^6. On day 3 (or 66-72 h), cells were harvested and centrifuged at 2500×g for 10 min. Pellet was resuspended in lysis buffer (100 mM sucrose, 50 mM KCl, 40 mM KH2PO4, 30 mM EDTA, pH 7.2) and passed through 21-gauge needle approximately 10 times. The mixture was centrifuged at 12,000 rpm in a Sigma 12158-H rotor at 4° C. for 30 min. The supernatant was subjected to centrifugation at 35,000 rpm in a Beckman Ti-45 rotor at 4° C. for 1 h. The resultant pellet containing the microsomes wasere resuspended overnight in 1 mL of lysis buffer and total protein concentration was estimated using Bradford Reagent. Microsomes were aliquoted and stored at −80° C.
Frozen aliquots of hDGAT1 containing microsomes were thawed (5-10 mg/mL total protein) on ice and diluted to a working stock of 1 mg/mL with DGAT Assay Buffer (DAB). The DGAT reaction assay was performed by following the procedure described in U.S. Pat. No. 6,607,893 with some modifications that are described below.
1 mL stock solution of DGAT1 substrate mixture contains 5.6 μL of ^14C oleoyl CoA (16.8 nCi) and […] of 1,2-dioleoyl-sn-glycerol (1228.5 μM) 1,2-dioleoyl-sn-glycerol stock (19.5 mM) was prepared by dissolving 25 mg of 1,2-dioleoyl-sn-glycerol (Sigma, US) in 2060 μL of acetone.
The assay was performed in duplicates in a reaction volume of 100 μL.
The reaction was started by the addition of 2.5 μL of 1 mg/mL of microsomes (iv) to the mixture of (i), (ii) and (iii), and incubated at 37° C. for 10 min. The reaction was stopped by the addition of 300 μL of Alkaline Ethanol Stop Solution Mix [AESSM; 12.5% of 100% non-denatured ethanol, 10% deionized water, 2.5% 1N NaOH, 75% stop solution (78.4% isopropanol, 19.6% n-heptane, 2% deionized water)] followed by addition of 600 μL of n-heptane. The mixture was vortexed and the triglycerides formed were extracted into the organic heptane phase. 250 μL of the heptane phase was added into 4 mL scintillation cocktail (66.72% toluene, 33.3% TritonX-100, 0.5% PPO, 0.02% POPOP) and counted on a liquid scintillation counter for 1 min. Data was collected and plotted as a function of concentration in nM versus percentage inhibition of hDGAT1 by the compounds of present invention.

Compound | Percentage inhibition of hDGAT1 | inhibition at 1 µM [%]
O=C(O)CCc1ncc(-c2ccc(NC(=O)Nc3ccccc3Cl)cc2)s1 [Example 9, 3-(5-(4-(3-(2-Chlorophenyl)ureido)phenyl)thiazol-2-yl)propanoic acid] | – | > 50
O=C(O)CCc1ncc(-c2ccc(NC(=O)NC3CCCCC3)cc2)s1 [Example 11, 3-(5-(4-(3-Cyclohexylureido)phenyl)thiazol-2-yl)propanoic acid] | – | > 50
CC(C)(C)c1ccc(C(=O)Nc2ccc(-c3cnc(CCC(=O)O)s3)cc2)cc1 [Example 15, 3-(5-(4-(4-Tert-butylbenzamido)phenyl)thiazol-2-yl)propanoic acid] | – | > 50
CCCCCc1ccc(C(=O)Nc2ccc(-c3cnc(CCC(=O)O)s3)cc2)cc1 [Example 17, 3-(5-(4-(4-Pentylbenzamido)phenyl)thiazol-2-yl)propanoic acid] | – | > 50
CCCCOc1ccc(C(=O)Nc2ccc(-c3cnc(CCC(=O)O)s3)cc2)cc1 [Example 23, 3-(5-(4-(4-Butoxybenzamido)phenyl)thiazol-2-yl)propanoic acid] | – | > 50
COc1ccc(S(=O)(=O)Nc2ccc(-c3cnc(CCC(=O)O)s3)cc2)c(OC)c1 [Example 25, 3-(5-(4-(2,4-Dimethoxyphenylsulfonamido)phenyl)thiazol-2-yl)propanoic acid] | – | 20 to 50
CC(C)(Cc1ncc(-c2ccc(NC(=O)Nc3ccc(C(F)(F)F)cc3)cc2)s1)C(=O)O [Example 32, 2,2-Dimethyl-3-(5-(4-(3-(4-(trifluoromethyl)phenyl)ureido)phenyl)thiazol-2-yl)propanoic acid] | – | > 50
CC(C)(Cc1ncc(-c2ccc(NC(=O)Nc3ccc(F)cc3)cc2)s1)C(=O)O [Example 34, 3-(5-(4-(3-(4-Fluorophenyl)ureido)phenyl)thiazol-2-yl)-2,2-dimethylpropanoic acid] | – | 20 to 50
CC(C)(Cc1ncc(-c2ccc(NC(=O)NC3CCCCC3)cc2)s1)C(=O)O [Example 38, 3-(5-(4-(3-Cyclohexylureido)phenyl)thiazol-2-yl)-2,2-dimethylpropanoic acid] | – | 20 to 50
CC(C)(Cc1ncc(-c2ccc(NC(=O)c3ccc(-c4ccccc4)cc3)cc2)s1)C(=O)O [Example 44, 3-(5-(4-Biphenyl-4-ylcarboxamidophenyl)thiazol-2-yl)-2,2-dimethylpropanoic acid] | + (20-50% Inhibition) | –
O=C(O)CCCc1ncc(-c2ccc(NC(=O)Nc3cccc(C(F)(F)F)c3)cc2)s1 [Example 49, 4-(5-(4-(3-(3-(Trifluoromethyl)phenyl)ureido)phenyl)thiazol-2-yl)butanoic acid] | – | > 50
Cc1ccc(NC(=O)Nc2ccc(-c3cnc(CCCC(=O)O)s3)cc2)cc1C [Example 53, 4-(5-(4-(3-(3,4-Dimethylphenyl)ureido)phenyl)thiazol-2-yl)butanoic acid] | – | > 50
O=C(O)CCCc1ncc(-c2ccc(NC(=O)Nc3ccc(Cl)cc3Oc3ccccc3)cc2)s1 [Example 55, 4-(5-(4-(3-(4-Chloro-2-phenoxyphenyl)ureido)phenyl)thiazol-2-yl)butanoic acid] | – | > 50
O=C(O)CCCc1ncc(-c2ccc(NC(=O)c3ccc(-c4ccccc4)cc3)cc2)s1 [Example 61, 4-(5-(4-Biphenyl-4-ylcarboxamidophenyl)thiazol-2-yl)butanoic acid] | ++ (>50 % Inhibition) | –

More lines, now with the values ahead:

Percentage inhibition of hDGAT1 | inhibition at 1 µM [%] | Compound
++ (>50 % Inhibition) | – | 3-(5-(4-(3-(2-Chlorophenyl)ureido)phenyl)thiazol-2-yl)-2,2-diethylpropanoic acid [Example 30]
+ (20-50% Inhibition) | – | 3-(5-(4-(4-Tert-butyl benzamido)phenyl)oxazol-2-yl)-2,2-dimethylpropanoic acid [Example 126]
+ (20-50% Inhibition) | – | 4-(3-(4-(3-(2,4-Difluorophenyl)ureido)phenyl)-1,2,4-oxadiazol-5-yl)butanoic acid [Example 332]
+ (20-50% Inhibition) | – | 4-(5-(4-(3-(2-Fluorophenyl)-2-methylguanidino)phenyl)thiazol-2-yl)-2,2-dimethyl butanoic acid [Example 271]
– | > 50 | O=C(O)CCc1ncc(-c2ccc(NC(=O)Nc3cccc(C(F)(F)F)c3)cc2)s1 [Example 7, 3-(5-(4-(3-(3-(Trifluoromethyl)phenyl)ureido)phenyl)thiazol-2-yl)propanoic acid]
– | > 50 | O=C(O)CCc1ncc(-c2ccc(NC(=O)Nc3ccc(Cl)cc3Oc3ccccc3)cc2)s1 [Example 13, 3-(5-(4-(3-(4-Chloro-2-phenoxyphenyl)ureido)phenyl)thiazol-2-yl)propanoic acid]
– | > 50 | CCOc1cc(COC)cc(C(=O)Nc2ccc(-c3cnc(CCC(=O)O)s3)cc2)c1 [Example 19, 3-(5-(4-(3-Ethoxy-5-(methoxymethyl)benzamido)phenyl)thiazol-2-yl)propanoic acid]
– | > 50 | O=C(O)CCc1ncc(-c2ccc(NC(=O)c3ccc4ccccc4c3)cc2)s1 [Example 21, 3-(5-(4-(2-Naphthamido)phenyl)thiazol-2-yl)propanoic acid]
– | > 50 | COc1ccc(NC(=O)Nc2ccc(-c3cnc(CC(C)(C)C(=O)O)s3)cc2)cc1 [Example 36, 3-(5-(4-(3-(4-Methoxyphenyl)ureido)phenyl)thiazol-2-yl)-2,2-dimethyl propanoic acid]
– | > 50 | CC(C)(Cc1ncc(-c2ccc(NC(=O)Nc3ccc(Cl)cc3Oc3ccccc3)cc2)s1)C(=O)O [Example 40, 3-(5-(4-(3-(4-Chloro-2-phenoxyphenyl)ureido)phenyl)thiazol-2-yl)-2,2-dimethylpropanoic acid]
– | 20 to 50 | CC(C)(Cc1ncc(-c2ccc(NC(=O)c3ccc(C(C)(C)C)cc3)cc2)s1)C(=O)O [Example 42, 3-(5-(4-(4-tert-Butylbenzamido)phenyl)thiazol-2-yl)-2,2-dimethylpropanoic acid]
– | > 50 | O=C(O)CCCc1ncc(-c2ccc(NC(=O)Nc3ccccc3Cl)cc2)s1 [Example 51, 4-(5-(4-(3-(2-Chlorophenyl)ureido)phenyl)thiazol-2-yl)butanoic acid]
– | 20 to 50 | CC(C)(C)c1ccc(C(=O)Nc2ccc(-c3cnc(CCCC(=O)O)s3)cc2)cc1 [Example 57, 4-(5-(4-(4-Tert-butylbenzamido)phenyl)thiazol-2-yl)butanoic acid]
– | > 50 | CCCCCc1ccc(C(=O)Nc2ccc(-c3cnc(CCCC(=O)O)s3)cc2)cc1 [Example 59, 4-(5-(4-(4-Pentylbenzamido)phenyl)thiazol-2-yl)butanoic acid]
– | 20 to 50 | COc1ccc(S(=O)(=O)Nc2ccc(-c3cnc(CCCC(=O)O)s3)cc2)c(OC)c1 [Example 63, 4-(5-(4-(2,4-Dimethoxyphenylsulfonamido)phenyl)thiazol-2-yl)butanoic acid]
